Consider 4 compounds from ChEMBL document CHEMBL3272295, “Drugs derived from cannabinoids. 5. delta6a,10a-Tetrahydrocannabinol and heterocyclic analogs containing aromatic side chains” (J Med Chem, 1976).

The structures appear in SMILES notation. Active and inactive are the calls of the source.

Data set [1] is described as follows: Acute toxicity in po dosed mouse. It counts as organism-based. The settings on record: in vivo.
In data set [2] the test system is Mus musculus. The data set can be described thus: Antidepressant activity in po dosed mouse assessed as potentiation of DOPA-induced effect administered 4 hrs prior to DOPA challenge. The class given is functional. The settings on record: read-out: MED.
The subject of data set [3] is Mus musculus. In words: Anticonvulsant activity in po dosed mouse assessed as dose required to protect 80% of animal measured after 1 to 4 hrs by audiogenic seizure test. It counts as functional.
In data set [4] the test system is Rattus norvegicus. In words: Antianxiety activity in Long-Evans rat assessed as reduction in motor activity at 1.25 mg/kg, po after 2 hrs relative to vehicle-treated control. It counts as functional. Set-up: scale not given: the % may be the effect or the level left.
Data set [5] relates to Rhesus monkey. In words: Antianxiety activity in po dosed rhesus monkey assessed as antiagressive behavior measured every hour post dosing. It counts as functional. The settings on record: Macaca mulatta, read-out: MED.
Data set [6] concerns Rattus norvegicus. In words: Antipsychotic activity in rat assessed as reduction of methamphetamine-induced hyperactivity at 5 mg/kg, po administered prior to methamphetamine challenge relative to vehicle-treated control. The class given is functional. Set-up: scale not given: the % may be the effect or the level left.
The subject of data set [7] is Mus musculus. In words: Antianxiety activity in albino BALB/cJ mouse assessed as reduction in footshock-induced fighting behavior at 10 mg/kg, po after 30 to 90 mins. It counts as functional. Set-up: scale not given: the % may be the effect or the level left.
Data set [8] deals with Rattus norvegicus. The data set can be described thus: Antipsychotic activity in rat assessed as reduction of methamphetamine-induced hyperactivity at 2.5 mg/kg, po administered prior to methamphetamine challenge relative to vehicle-treated control. It counts as functional. Set-up: scale not given: the % may be the effect or the level left.
Data set [9] has as its system Mus musculus. The data set can be described thus: Analgesic activity in po dosed mouse assessed as inhibition of acetic acid-induced writhing administered 30 mins prior to acetic acid challenge measured after 5 mins for 20 mins. It counts as functional.
Data set [10] relates to Mus musculus. In words: Increase in footshock-induced fighting behavior in albino BALB/cJ mouse at 10 mg/kg, po after 30 to 90 mins. The class given is functional.
For data set [11], the species on record is Rattus norvegicus. The data set can be described thus: animal or person. It counts as functional. The settings on record: Charles River, route oral.
Description: Antidiarrheal activity in Charles River rat assessed as inhibition of castor oil-induced diarrhea by measuring protected animals at 0.5 mg/kg, po administered 1 hr prior to castor oil challenge measured after 1 hr relative to vehicle-treated control
The subject of data set [12] is Mus musculus. The data set can be described thus: Analgesic activity in mouse assessed as inhibition of acetic acid-induced writhing at 16 mg/kg, po administered 30 mins prior to acetic acid challenge measured after 5 mins for 20 mins. The class given is functional.
In data set [13] the test system is Rattus norvegicus. In words: Antianxiety activity in Long-Evans rat assessed as reduction in motor activity at 5 mg/kg, po after 2 hrs relative to vehicle-treated control. It counts as functional. Set-up: scale not given: the % may be the effect or the level left.
For data set [14], the system named is Rattus norvegicus. In words: Antihypertensive activity in spontaneously hypertensive rat model assessed as reduction in blood pressure at 3 mg/kg, po after 3 hrs. It counts as functional. Set-up: scale not given: the % may be the effect or the level left.
Data set [15] concerns Mus musculus. In words: Analgesic activity in mouse assessed as inhibition of acetic acid-induced writhing at 10 mg/kg, po administered 30 mins prior to acetic acid challenge measured after 5 mins for 20 mins. It counts as functional.
Data set [16] relates to Rattus norvegicus. In words: Analgesic activity in Sprague-Dawley rat assessed as increase in pain threshold at 40 mg/kg, po after 15 to 90 mins by tail flick test. The class given is functional.
Data set [17] has as its system Rattus norvegicus. In words: Antihypertensive activity in spontaneously hypertensive rat model assessed as reduction in blood pressure at 1 mg/kg, po after 24 hrs. The class given is functional. Set-up: scale not given: the % may be the effect or the level left.
The test system of data set [18] is Rattus norvegicus. In words: Antihypertensive activity in spontaneously hypertensive rat model assessed as reduction in blood pressure at 3 mg/kg, po after 24 hrs. It counts as functional. Set-up: scale not given: the % may be the effect or the level left.
The test system of data set [19] is Rattus norvegicus. The data set can be described thus: Antianxiety activity in Long-Evans rat assessed as reduction in motor activity at 10 mg/kg, po after 2 hrs relative to vehicle-treated control. It counts as functional. Set-up: scale not given: the % may be the effect or the level left.
In data set [20] the test system is Rattus norvegicus. In words: Antihypertensive activity in spontaneously hypertensive rat model assessed as reduction in blood pressure at 1 mg/kg, po after 3 hrs. The class given is functional. Set-up: scale not given: the % may be the effect or the level left.
The subject of data set [21] is Rattus norvegicus. In words: Antipsychotic activity in rat assessed as reduction of methamphetamine-induced hyperactivity at 20 mg/kg, po administered prior to methamphetamine challenge relative to vehicle-treated control. The class given is functional. Set-up: scale not given: the % may be the effect or the level left.
In data set [22] the test system is Rattus norvegicus. The data set can be described thus: Antipsychotic activity in rat assessed as reduction of methamphetamine-induced hyperactivity at 10 mg/kg, po administered prior to methamphetamine challenge relative to vehicle-treated control. It counts as functional. Set-up: scale not given: the % may be the effect or the level left.
Data set [23] has as its system Rattus norvegicus. The data set can be described thus: Analgesic activity in Sprague-Dawley rat assessed as increase in pain threshold at 20 mg/kg, po after 15 to 90 mins by tail flick test. The class given is functional.
Data set [24] has as its system Mus musculus. In words: Antianxiety activity in albino BALB/cJ mouse assessed as reduction in footshock-induced fighting behavior at 5 mg/kg, po after 30 to 90 mins. The class given is functional. Set-up: scale not given: the % may be the effect or the level left.

For `CCCCCC(C)C(C)c1cc(O)c2c(c1)OC(C)(C)C1CC=C(C)CC21` (stereo unspecified), in data set [1], the median lethal dose (LD50) is ≥ 1000 mg/kg. Moreover, the minimal effective dose in data set [2] worked out at 20 mg/kg; in data set [5], 1 mg/kg. In addition, the outcome in [3] was inactive. Moreover, the Activity in [4] turned out to be 60%; in data set [6], 81%; in data set [7] it was 89%; in data set [8], 52%. Also, in data set [9], the ED50 is 7.9 mg/kg.

As for `C#CCN1CCC2=C(C1)c1c(O)cc(C(C)CCCc3ccc(C)cc3)cc1OC2(C)C` (stereo unspecified), the 50% lethal dose (LD50) in [1] is ≥ 1000 mg/kg. Moreover, the Activity in data set [10] worked out at 17%; in data set [13], 24%; in [6] it was 46%. In addition, the inhibition in vivo at 0.5 mg/kg in data set [11] was 0%. In addition, in data set [12], the inhibition in vivo at 16 mg/kg was 32%.

As to `CC1CCC2=C(C1)c1c(O)cc(C(C)CCc3ccc(F)cc3)cc1OC2(C)C` (stereo unspecified), the LD50 in data set [1] is ≥ 1000 mg/kg. Besides, the Activity in data set [14] is given as 28%; in data set [16], 70%; in data set [17] it was 5%; in [6] it was 23%; in [18], 8%; in [19] it was 72%. Also, the Activity in data set [20] is given as 8%. Also, in data set [15], the inhibition in vivo at 10 mg/kg worked out at 27%.

For `CN(C)CCCN1c2ccccc2Sc2ccc(Cl)cc21` [CHLORPROMAZINE], the Activity in [21] is given as 93%; in [22] it was 83%; in data set [6], 11%; in data set [23], 37%; in data set [24] it was 79%; in data set [19] it was 76%. The ED50 in data set [9] stood at 2.4 mg/kg.
